Measurements as given in ChEMBL document CHEMBL2021864, “Investigating the activity of quinine analogues versus chloroquine resistant Plasmodium falciparum” (Bioorg Med Chem, 2012).

Columns and labels:
Plasmodium falciparum [1] = experiment: microbe, parasite or virus in culture; assay type: functional, organism-based; settings: Dd2, 72 h
Description: Antimalarial activity against chloroquine resistant Plasmodium falciparum Dd2 after 72 hrs by SYBP Green I dye staining

Plasmodium falciparum [2] = experiment: microbe, parasite or virus in culture; assay type: functional, organism-based; settings: HB3, 72 h
Description: Antimalarial activity against chloroquine sensitive Plasmodium falciparum HB3 after 72 hrs by SYBP Green I dye staining

[3] = Inhibition of beta-hematin formation after 16 hrs at pH 5.2 by microplate reader; assay type: functional
[4] = Inhibition of beta-hematin formation after 16 hrs at pH 5.6 by microplate reader; assay type: functional
Plasmodium falciparum [5] = experiment: Ratio of compound IC50 to quinidine IC50 for […] Plasmodium falciparum Dd2; assay type: functional
Plasmodium falciparum [6] = experiment: Ratio of compound IC50 to quinidine IC50 for chloroquine sensitive Plasmodium falciparum HB3; assay type: functional
Plasmodium falciparum [7] = experiment: Ratio of compound IC50 to cinchonine IC50 for chloroquine sensitive Plasmodium falciparum HB3; assay type: functional

SMILES	IC50 (Plasmodium falciparum [1]) [nM]	IC50 (Plasmodium falciparum [2]) [nM]	IC50 [3] [nM]	IC50 [4] [nM]	Ratio IC50 (Plasmodium falciparum [5])	Ratio IC50 (Plasmodium falciparum [6])	Ratio IC50 (Plasmodium falciparum [7])
COc1ccc2nccc([C@@H](O)[C@H]3C[C@H]4CCN3C[C@@H]4/C=C/c3ccccc3)c2c1	> 500	> 500					
COc1ccc2nccc([C@@H](O)[C@H]3C[C@H]4CCN3C[C@@H]4/C=C/c3ccc(C)cc3)c2c1	> 500	> 500					
COc1ccc2nccc([C@@H](O)[C@H]3C[C@H]4CCN3C[C@@H]4/C=C/c3ccccc3C)c2c1	> 500	> 500					
COc1ccc2nccc([C@@H](O)[C@H]3C[C@H]4CCN3C[C@@H]4/C=C/c3ccc4ccccc4c3)c2c1	> 1500	> 500					
COc1ccc2nccc([C@@H](O)[C@H]3C[C@H]4CCN3C[C@@H]4/C=C/c3cccc4ccccc34)c2c1	> 500	> 500					
COc1ccc2nccc([C@@H](O)[C@H]3C[C@H]4CCN3C[C@@H]4/C=C/c3ccc(-c4ccccc4)cc3)c2c1	184	128					
CCOC(=O)c1ccc(/C=C/[C@H]2CN3CC[C@@H]2C[C@@H]3[C@H](O)c2ccnc3ccc(OC)cc23)cc1	318	428	54000	40000			
COc1ccc2nccc([C@@H](O)[C@H]3C[C@H]4CCN3C[C@@H]4/C=C/c3ccc(F)cc3)c2c1	> 500	> 500	44000	23000			
COc1ccc2nccc([C@@H](O)[C@H]3C[C@H]4CCN3C[C@@H]4/C=C/c3cccc(F)c3)c2c1	733	145					
COc1ccc2nccc([C@@H](O)[C@H]3C[C@H]4CCN3C[C@@H]4/C=C/c3ccc(Cl)cc3)c2c1	> 500	> 500					
COc1ccc2nccc([C@@H](O)[C@H]3C[C@H]4CCN3C[C@@H]4/C=C/c3ccc(C(F)(F)F)cc3)c2c1	485	427	100000	46000			
COc1ccc2nccc([C@@H](O)[C@H]3C[C@H]4CCN3C[C@@H]4/C=C/c3cccc(C(F)(F)F)c3)c2c1	> 500	> 500	52000				
COc1ccc(/C=C/[C@H]2CN3CC[C@@H]2C[C@@H]3[C@H](O)c2ccnc3ccc(OC)cc23)cc1	> 500	> 500					
COc1cccc(/C=C/[C@H]2CN3CC[C@@H]2C[C@@H]3[C@H](O)c2ccnc3ccc(OC)cc23)c1	> 500	> 500					
COc1ccc2nccc([C@@H](O)[C@H]3C[C@H]4CCN3C[C@@H]4/C=C/c3ccc4c(c3)OCO4)c2c1	> 500	> 500					
O[C@H](c1ccnc2ccccc12)[C@@H]1C[C@@H]2CCN1C[C@@H]2/C=C/c1ccc(-c2ccccc2)cc1	176	127		116000			

SMILES	IC50 (Plasmodium falciparum [1]) [nM]	IC50 (Plasmodium falciparum [2]) [nM]	IC50 [3] [nM]	IC50 [4] [nM]	Ratio IC50 (Plasmodium falciparum [5])	Ratio IC50 (Plasmodium falciparum [6])	Ratio IC50 (Plasmodium falciparum [7])
CCOC(=O)c1ccc(/C=C/[C@H]2CN3CC[C@H]2C[C@H]3[C@H](O)c2ccnc3ccccc23)cc1	198	590					
O[C@H](c1ccnc2ccccc12)[C@@H]1C[C@@H]2CCN1C[C@@H]2/C=C/c1ccc(C(F)(F)F)cc1	223	297					
O[C@H](c1ccnc2ccccc12)[C@@H]1C[C@@H]2CCN1C[C@@H]2/C=C/c1cccc(C(F)(F)F)c1	928	394	75000	70000			
COc1ccc2nccc([C@H](O)[C@H]3C[C@@H]4CCN3C[C@@H]4/C=C/c3ccc(-c4ccccc4)cc3)c2c1	202	123			2	6	
CCOC(=O)c1ccc(/C=C/[C@H]2CN3CC[C@H]2C[C@@H]3[C@@H](O)c2ccnc3ccc(OC)cc23)cc1	203	120	88000	40000	2	6	
COc1ccc2nccc([C@H](O)[C@H]3C[C@@H]4CCN3C[C@@H]4/C=C/c3ccc(C(F)(F)F)cc3)c2c1	2350	165					
COc1ccc2nccc([C@H](O)[C@H]3C[C@@H]4CCN3C[C@@H]4/C=C/c3cccc(C(F)(F)F)c3)c2c1	182	98			2	6	
O[C@@H](c1ccnc2ccccc12)[C@H]1C[C@@H]2CCN1C[C@@H]2/C=C/c1ccc(-c2ccccc2)cc1	243	90					6
CCOC(=O)c1ccc(/C=C/[C@H]2CN3CC[C@H]2C[C@@H]3[C@@H](O)c2ccnc3ccccc23)cc1	263	144	66000	50000			6
O[C@@H](c1ccnc2ccccc12)[C@H]1C[C@@H]2CCN1C[C@@H]2/C=C/c1ccc(C(F)(F)F)cc1	983	66					6
O[C@@H](c1ccnc2ccccc12)[C@H]1C[C@@H]2CCN1C[C@@H]2/C=C/c1cccc(C(F)(F)F)c1	146	154	63000	39000			6
CCN(CC)CCCC(C)Nc1ccnc2cc(Cl)ccc12 (stereo not drawn) [CHLOROQUINE]			49000	33000			
C=C[C@H]1CN2CC[C@H]1C[C@H]2[C@H](O)c1ccnc2ccccc12 [CINCHONIDINE]	207	70	321000	142000			
C=C[C@H]1CN2CC[C@H]1C[C@@H]2[C@@H](O)c1ccnc2ccccc12 [CINCHONINE]	82	22	370000	170000			
C=C[C@H]1CN2CC[C@H]1C[C@@H]2[C@@H](O)c1ccnc2ccc(OC)cc12 [QUINIDINE]	90	18	130000	23000			
C=C[C@H]1CN2CC[C@H]1C[C@H]2[C@H](O)c1ccnc2ccc(OC)cc12 [QUININE]	320	81	291000	34000			
